Publication PMC6684654 (Nature Communications, 2019)
In brackets after ≈: the same amount, converted by molar mass. Several values for one entry are separate records, joined by “and”; a condition that tells them apart may be missing. Equal values may be shown once. Read-outs that look alike come from different tables or passages of the source.

Legend:
NDM-1 E. coli XJ141026 [1] = test: Antibiotic susceptibility (MIC), automated identification system; type: cell-based; conditions: Supplementary Table 1
How it was run: (§1)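 Resistance screening used an automated identification system on clinical strains.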

NDM-1 E. coli XJ141015 [2] = test: as above; type: cell-based; conditions: Supplementary Table 1
How it was run: as §1

[3] = system: NDM-1 K. pneumoniae XJ155020; test: as above; type: cell-based; conditions: Supplementary Table 2
How it was run: as §1

K. pneumoniae ATCC13883 [4] = test: as above; type: cell-based; conditions: Supplementary Table 2
How it was run: as §1

[5] = system: NDM-1 K. pneumoniae XJ155019; test: as above; type: cell-based; conditions: Supplementary Table 2
How it was run: as §1

E. coli ATCC25922 [6] = test: as above; type: cell-based; conditions: Supplementary Table 1
How it was run: as §1

[7] = system: NDM-1 K. pneumoniae XJ155017; test: as above; type: cell-based; conditions: Supplementary Table 2
How it was run: as §1

NDM-1 E. coli XJ141047 [8] = test: as above; type: cell-based; conditions: Supplementary Table 1
How it was run: as §1

[9] = system: NDM-1 K. pneumoniae XJ155018; test: as above; type: cell-based; conditions: Supplementary Table 2
How it was run: as §1

[10] = system: NDM-1-producing E. coli XJ141026; test: Bactericidal activity of combination treatment; type: cell-based; conditions: Imp 25 μM, Tha 0.4 μM, alone or combined, 16 h, listed as Imp
Protocol: The kill curves were determined as mentioned above to investigate the bactericidal activity of the combination treatment. […] CFUs were counted.

NDM-1 E. coli XJ141026 [11] = test: MIC, broth microdilution; type: cell-based; conditions: MHB, 5 × 10^5 CFU/mL, 16 h, 37 °C
From the text: (§2) MIC values were identified through microdilution in sterilized 96-well polypropylene microtiter plates according to the broth microdilution guideline of the Clinical and Laboratory Standards Institute[30]. The test medium was Mueller–Hinton broth (MHB), and the strain concentrations were adjusted to 5 × 10^5 CFU/mL.

NDM-1 E. coli XJ141015 [12] = test: MIC, broth microdilution; type: cell-based; conditions: MHB, 5 × 10^5 CFU/mL, 16 h, 37 °C
From the text: as §2

[13] = system: NDM-1 K. pneumoniae XJ155020; test: MIC, broth microdilution; type: cell-based; conditions: 16 h
From the text: as §2

K. pneumoniae ATCC13883 [14] = test: MIC, broth microdilution; type: cell-based; conditions: Klebsiella pneumoniae, ATCC13883; MHB, 5 × 10^5 CFU/mL, 16 h, 37 °C; read-out: MIC
From the text: as §2

[15] = system: NDM-1 K. pneumoniae XJ155019; test: MIC, broth microdilution; type: cell-based; conditions: 16 h
From the text: as §2

E. coli ATCC25922 [16] = test: MIC, broth microdilution; type: cell-based; conditions: Escherichia coli, ATCC25922; MHB, 5 × 10^5 CFU/mL, 16 h, 37 °C; read-out: MIC
From the text: as §2

E. coli ATCC35218 = test: MIC, broth microdilution; type: cell-based; conditions: Escherichia coli, ATCC35218; MHB, 5 × 10^5 CFU/mL, 16 h, 37 °C; read-out: MIC
From the text: as §2

[17] = system: NDM-1 K. pneumoniae XJ155017; test: MIC, broth microdilution; type: cell-based; conditions: Klebsiella pneumoniae; MHB, 5 × 10^5 CFU/mL, 16 h, 37 °C; read-out: MIC
From the text: as §2

NDM-1 E. coli XJ141047 [18] = test: MIC, broth microdilution; type: cell-based; conditions: MHB, 5 × 10^5 CFU/mL, 16 h, 37 °C
From the text: as §2

[19] = system: NDM-1 K. pneumoniae XJ155018; test: MIC, broth microdilution; type: cell-based; conditions: Klebsiella pneumoniae; MHB, 5 × 10^5 CFU/mL, 16 h, 37 °C; read-out: MIC
From the text: as §2

NDM-1 [20] = molecular target: T1, NDM-1 (Klebsiella pneumoniae, UniProt C7C422); conditions: reported Km for imipenem; ref 15 (Yuan Q, He L, Ke H, 2012); cited from earlier work
NDM-1 [21] = molecular target: T1, NDM-1; conditions: NDM-1/Imipenem
Protocol: The change in absorbance at 300 nm was monitored for 30 min in 96-well plates at 30 °C. The initial rate of reaction for each inhibitor concentration was calculated from the slope of the initial linear phase of the respective time course. The IC50 value was obtained by plotting the residual enzyme activity on imipenem (%) vs. inhibitor concentration (log10). […] The best fits were obtained with the competitive inhibition model by using the equation V0 = (Vmax × [S]) / (Km × (1 + [I] / Ki) + [S]). […] The kinetics parameters Km/Vmax/Kcat were calculated by fitting the data into the double reciprocal Lineweaver–Burk plots. GraphPad 5.0 was used for data analysis.

[22] = system: seven NDM-1-producing strains; test: Checkerboard assay / FIC, summary; type: cell-based, E. coli; K. pneumoniae; conditions: in combination with thanatin
Protocol: Synergy in vitro was assessed by checkerboard assays. […] Following incubation, the synergistic/additive effect was determined by calculating the FIC indices (FICI) according to the formula: FICI = (MIC of A in combination/MIC of A) + (MIC of B in combination/MIC of B). The synergy or additive was defined according to standard criteria (FICI ≤ 0.5 was defined as synergistic; 0.5 < FICI ≤ 1 was defined as additive; 1 < FICI ≤ 4 was defined as indifference; FICI > 4 was defined as antagonism)[39].

NDM-1 [23] = molecular target: T1, NDM-1; conditions: cited from earlier work
From the text: NDM-1 inhibitors, which antagonize multiple subtypes of metallo-β-lactamases and protect β-lactam antibiotics from being hydrolyzed, have been widely studied for synergistic application with β-lactam antibiotics to restore their bactericidal effects[15],[25],[26]. The most common mechanism of metallo-β-lactamase inhibitors is metal ion binding.

[24] = system: NDM-1 in E. coli XJ141026 culture supernatant; test: NDM-1 release to culture supernatant (ELISA); type: cell-based; conditions: 0.8, 1.6, 3.2 μM; 6 or 12 h
Protocol: (§3) NDM-1 level in the filtered supernatant was measured using a specific ELISA kit (Shanghai Enzyme-linked Biotechnology Co., Ltd., China) and western blot analysis. Imipenem hydrolysis in the filtered supernatant at 6 h was monitored using a Biotek powerwave HT microplate spectrophotometer at 30 °C by determining the changes in absorbance at 300 nm, with a final substrate concentration of 100 μM.

[25] = system: NDM-1 in E. coli XJ141026 supernatant; test: Imipenem hydrolysis by culture supernatant; type: biochemical
Protocol: as §3

[26] = system: NDM-1 in E. coli XJ141026 cell precipitates; test: Imipenem hydrolysis by cell precipitates; type: biochemical; conditions: 100 μM imipenem (50 μL of 200 μM), 30 °C; treated 6 h
Protocol: The cell pellet was washed and resuspended in 20 mM Tris-HCl (pH = 7.4) to evaluate imipenem hydrolysis in bacterial cell precipitates. The concentrations were equalized by adjusting the absorbance values to OD600 = 0.3 in the same buffer. After 50 μL of the diluted bacterial cell suspension was transferred to a 96-well plate, 50 μL of 200 μM imipenem was added to measure the hydrolytic activity of NDM-1 and 50 μL of 20 mM Tris-HCl (pH = 7.4) was added as blank. The assays were monitored at 300 nm by using a Biotek powerwave HT microplate spectrophotometer at 30 °C. Data were corrected by subtracting the absorbance values obtained from the blanks.

[27] = system: NDM-1 in E. coli XJ141026; test: NDM-1 levels in supernatants and cell precipitates (western blot); type: cell-based; conditions: 0.8, 1.6, 3.2 μM; 6 h
Protocol: as §3
Soluble total protein concentration was determined and normalized with the Pierce BCA Protein Assay Kit (Thermo Fisher Scientific, Waltham, MA, USA). NDM-1 levels in the cells were measured by SDS-PAGE followed by western blot analysis. The primary antibody against NDM-1 was obtained from Detai Bio-Tech Co., Ltd. by immunizing New Zealand white rabbits with purified NDM-1 protein and further detected by horseradish peroxidase-conjugated anti-rabbit secondary antibody (Santa Cruz Biotechnology Inc., USA). Anti-GroEL antibody (Abcam, ab82592) was used to verify protein loading transferred to the membranes. To clearly normalize the levels of NDM-1, we investigated the two proteins on the same membrane. […] Protein band intensities were quantified from polyvinylidene difluoride membranes with ImageJ software.

apo-NDM-1 = apo-NDM-1 (Klebsiella pneumoniae, UniProt C7C422); type: binding; conditions: 50 mM HEPES pH 7.4, 0.05% Tween-20, RED-tris-NTA label, triplicate
Protocol: Briefly, apo-NDM-1 was derived from the purified NDM-1 obtained above by the two rounds of dialysis against 100 volumes of 10 mM HEPES, 200 mM NaCl, and 20 mM EDTA at pH = 7.4 over a 12 h period under stirring. EDTA was removed from the resulting apoenzyme solution by three dialysis steps against 200 volumes of 10 mM HEPES, 1 M NaCl, pH = 7.4, Chelex 100 and finally three dialysis steps against 200 volumes of 50 mM HEPES, 200 mM NaCl, pH = 7.4, and Chelex 100. All buffer solutions used to prepare the apoenzymes were treated by stirring with Chelex 100 (Bio-Rad). Zinc content in the apoprotein samples was checked using ICP-MS, and apo-NDM-1 contains less than 0.2 molar equivalents of zinc ion.
Apo-NDM-1 carrying a polyhistidine-tag (His-tag) was labeled with the RED-tris-NTA second-generation dye for 30 min at room temperature in the dark according to the manufacturer’s instructions (Monolith His-tag Labeling Kit RED-tris-NTA 2nd generation, Nanotemper Technologies GmbH). […] Then, 100 nM labeled NDM-1 protein was added to the serial dilution of the compound in a 1:1 volume ratio. After incubation for 30 min at room temperature, the samples were examined with Monolith NT.115 in Premium Capillaries (MO-K025) at medium MST power and 5% LED/excitation power. Kd values were determined using the Monolith Affinity Analysis Kd fit from triplicate experiments.

[28] = Escherichia coli, read-out: MIC

T1 sequence (C7C422 20-270, looked up, natural form): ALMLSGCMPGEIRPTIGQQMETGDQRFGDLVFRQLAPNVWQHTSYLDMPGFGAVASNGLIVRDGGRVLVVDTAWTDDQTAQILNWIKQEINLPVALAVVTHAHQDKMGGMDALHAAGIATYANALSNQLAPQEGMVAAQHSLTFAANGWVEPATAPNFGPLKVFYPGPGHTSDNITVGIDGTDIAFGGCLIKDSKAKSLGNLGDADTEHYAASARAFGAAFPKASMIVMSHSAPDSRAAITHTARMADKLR
Chain of apo-NDM-1 (C7C422 20-270, looked up, natural form): as above

Molecule: C[C@@H](O)[C@H]1C(=O)N2C(C(=O)O)=C(SCCN=CN)C[C@H]12 [Imipenem]
- MIC (NDM-1 E. coli XJ141026 [1]; Escherichia coli): > 8 µg/mL
- susceptibility class (MIC) (NDM-1 E. coli XJ141026 [1]): R
- MIC (NDM-1 E. coli XJ141015 [2]; Escherichia coli): > 8 µg/mL
- susceptibility class (MIC) (NDM-1 E. coli XJ141015 [2]): R
- MIC ([3]; Klebsiella pneumoniae): > 8 µg/mL
- susceptibility class (MIC) [3]: R
- MIC (K. pneumoniae ATCC13883 [4]; Klebsiella pneumoniae, ATCC13883): ≤ 1 µg/mL
- susceptibility class (MIC) (K. pneumoniae ATCC13883 [4]): S
- MIC ([5]; Klebsiella pneumoniae): > 8 µg/mL
- susceptibility class (MIC) [5]: R
- MIC (E. coli ATCC25922 [6]; Escherichia coli, ATCC25922): ≤ 1 µg/mL
- susceptibility class (MIC) (E. coli ATCC25922 [6]): S
- MIC ([7]; Klebsiella pneumoniae): > 8 µg/mL
- susceptibility class (MIC) [7]: R
- MIC (NDM-1 E. coli XJ141047 [8]; Escherichia coli): > 8 µg/mL
- susceptibility class (MIC) (NDM-1 E. coli XJ141047 [8]): R
- MIC ([9]; Klebsiella pneumoniae): > 8 µg/mL
- susceptibility class (MIC) [9]: R
- bacterial count ([10]; replicate 1): 2.00E+11 CFU/mL and 11.30 Log10(CFU/mL)
- bacterial count ([10]; replicate 2): 9.50E+11 CFU/mL and 11.98 Log10(CFU/mL)
- bacterial count ([10]; replicate 3): 7.41E+10 CFU/mL and 10.87 Log10(CFU/mL)
- bacterial count ([10]; replicate 4): 5.75E+11 CFU/mL and 11.76 Log10(CFU/mL)
- MIC (NDM-1 E. coli XJ141026 [11]; [28]): 16 µg/mL
- MIC (NDM-1 E. coli XJ141015 [12]; [28]): 16 µg/mL
- MIC ([13]; Klebsiella pneumoniae): 128 µg/mL
- MIC (K. pneumoniae ATCC13883 [14]): < 0.125 µg/mL
- MIC ([15]; Klebsiella pneumoniae): 128 µg/mL
- MIC (E. coli ATCC25922 [16]): < 0.125 µg/mL
- MIC (E. coli ATCC35218): < 0.125 µg/mL
- MIC [17]: > 256 µg/mL
- MIC (NDM-1 E. coli XJ141047 [18]; [28]): 32 µg/mL
- MIC [19]: 32 µg/mL (≈ 107 µM)
- Km (NDM-1 [20]): 94 µM
- Kcat (NDM-1 [21]): 130.40 ± 2.67 s⁻¹
- Km (NDM-1 [21]): 104 µM
- Vmax (NDM-1 [21]): 0.13 ± 0.03 µM/s
- FIC indices, all seven strains [22]: ≤ 1
- effect of combination [22]: synergistic or additive

Molecule: N[C@H](CN[C@H](CN[C@@H](CC(=O)O)C(=O)O)C(=O)O)C(=O)O [aspergillomarasmine A]
- NDM-1 inhibition in words (NDM-1 [23]): inhibits the NDM-1 protease activity by chelating zinc ions from the active site

Molecule: Colistin
- NDM-1 release into solution [24]: causing the release of NDM-1 into the solution in a time- and concentration-dependent manner
- MIC (NDM-1 E. coli XJ141026 [11]): 0.85 µM
- MIC (NDM-1 E. coli XJ141015 [12]): 1.7 µM
- MIC ([13]; MHB, 5 × 10^5 CFU/mL, 37 °C): 6.8 µM
- MIC ([15]; MHB, 5 × 10^5 CFU/mL, 37 °C): 6.8 µM
- MIC (NDM-1 E. coli XJ141047 [18]): 1.7 µM
- hydrolysis of imipenem by supernatant ([25]; 100 μM imipenem, 30 °C, treated 6 h): strong hydrolytic activity to imipenem
- effect on NDM-1 activity ([25]; Discussion): almost no effect on NDM-1 activity
- hydrolysis rate of precipitates [26]: consistently decreased with increasing thanatin or colistin concentration
- NDM-1 level in cell precipitates [27]: decreased
- Kd (apo-NDM-1): 61.7 ± 4.92 µM
